Usually IC50 stands for the concentration that gives 50% inhibition. Read a high IC50 as weaker potency.

This note sets out measurements from patent publication US6835720B2, “Compounds having antiviral activity” (Nissin Food Products Co., Ltd., priority 1996, dated 2004).

Read-outs that look alike come from different tables or passages of the source.

In series [1] the test system is human T cells (H9 cell line). As to the kind of experiment: Cytotoxicity, viable cells counted by the MTT method. The class given is cell-based. The protocol: (§1) Samples of various concentrations (25 μl) are distributed into a 24-well microplate, immediately added with human T cells (H9 cell line, 1.2×10^5/ml) (1 ml), covered, and incubated at 37° C. for 1 h. Then, AIDS virus (HIV-1, IIIb, 100 TCID 50) (25 μl) is added to each well and thoroughly mixed, covered again, and incubated under the CO2 atmosphere at 37° C. for 3 days. On the fourth day, aliquots (200 μl) of the culture medium from each well are transferred into a fresh microplate. The growth medium (500 μl) is added to each well, and further incubated for 2 days.
(§2) On the 6th day, aliquots (90 μl) of the culture supernatant are withdrawn, and assayed the amount of p24, a constituent of HIV-1, by ELISA method using the anti-p24 antibody to assess the growth of said virus. Also, using the remaining cell culture suspension (100 μl), viable cells are counted by the MTT method. Experimental values are expressed as the ratios (%) to the negative control value (measured using the solvent to dissolve test compounds as the sample) to represent the anti-HIV activity and cytotoxicity. Then, for the unified representation of the anti-HIV activity and cytotoxicity, the concentrations of test compounds at their 50% values are obtained from the activity-concentration curves and the cytotoxicity-concentration, and represented as IC50 and CC50, respectively.

The next series deals with AIDS virus (HIV-1, IIIb). The class given is cell-based. The conditions noted are these: HIV-1 IIIb in H9 cells, p24 in culture supernatant by ELISA on the 6th day. The protocol:
as §1, §2
Background: An ELISA detects its analyte on a solid surface through an enzyme-linked reagent.

“1-[N-{5-Acetamido-3,5-dideoxy-2-O-methyl-4,7,8,9-tetra-O-(sodium oxysulfonyl)-D-glycero-β-D-galacto-2-nonulopyranosonyl}amino]-2,2-bis(docosyloxymethyl) propane [Example 59]” displayed a CC50 in series [1] of over 200 µM. This compound also showed an IC50 with AIDS virus (HIV-1, IIIb) of 1.4 µM.

“3-O-[Sodium{5-acetamido-3,5-dideoxy-4,7,8,9-tetra-O-(sodium oxysulfonyl)-D-glycero-α-D-galacto-2-nonulopyranosyl}onate]-1,2-di-O-tetradecyl-Sn-glycerol [Example 7]”: the CC50 in series [1] was over 200 µM. In the series on AIDS virus (HIV-1, IIIb), this compound showed an IC50 of 16 µM.

Regarding “3-S-[Sodium{5-acetamido-3,5-dideoxy-4,7,8,9-tetra-O-(sodium oxysulfonyl)-D-glycero-α-D-galacto-2-nonulopyranosyl}onate]-1,2-di-O-tetradecyl-Sn-thioglycerol [Example 14]”, in series [1], the CC50 is over 200 µM. For the same compound, the IC50 with AIDS virus (HIV-1, IIIb) turned out to be 15 µM.

In series [1], `CCCCCCCCCCOCC(COC1(C(=O)O)CC(OS(=O)(=O)O)C(NC(C)=O)C(C(OS(=O)(=O)O)C(COS(=O)(=O)O)OS(=O)(=O)O)O1)OCCCCCCCCCC` [Example 5, 3-O-[Sodium{5-acetamido-3,5-dideoxy-4,7,8,9-tetra-O-(sodiumoxysulfonyl)-D-glycero-α-D-galacto-2-nonulopyranosyl}onate]-1,2-di-O-decyl-Sn-glycerol] showed a CC50 of over 200 µM. In addition, in the series with AIDS virus (HIV-1, IIIb), it took 46 µM to reach half-maximal inhibition (IC50).

`CCCCCCCCCCOCC(COC1(C(=O)O)CC(OS(=O)(=O)O)C(NC(C)=O)C(C(OS(=O)(=O)O)C(COS(=O)(=O)O)OS(=O)(=O)O)O1)OCCCCCCCCCC` [Example 6, 3-O-[Sodium{5-acetamido-3,5-dideoxy4,7,8,9-tetra-O-(sodiumoxysulfonyl)-D-glycero-β-D-galacto-2-nonulopyranosyl}onate]-1,2-di-O-decyl-Sn-glycerol]: in series [1] (H9 cells, MTT method, 6th day, read-out: CC 50), the CC50 is over 200 µM. The compound further had an IC50 in the series with AIDS virus (HIV-1, IIIb) of 50 µM.

Turning to `CCCCCCCCCCCCCCOCC(COC1(C(=O)O)CC(OS(=O)(=O)O)C(NC(C)=O)C(C(OS(=O)(=O)O)C(COS(=O)(=O)O)OS(=O)(=O)O)O1)OCCCCCCCCCCCCCC` [Example 8, 3-O-[Sodium{5-acetamido-3,5-dideoxy-4,7,8,9-tetra-O-(sodiumoxysulfonyl)-D-glycerol-β-D-galacto-2-nonulopyranosyl}ornate]-1,2-di-O-tetradecyl-Sn-glycerol], the CC50 in series [1] is over 200 µM. Moreover, the midpoint of inhibition in the series with AIDS virus (HIV-1, IIIb), the IC50, lay at 15 µM.

Compound `CCCCCCCCCCCCCCCCCCOCC(COC1(C(=O)O)CC(OS(=O)(=O)O)C(NC(C)=O)C(C(OS(=O)(=O)O)C(COS(=O)(=O)O)OS(=O)(=O)O)O1)OCCCCCCCCCCCCCCCCCC` [Example 9, 3-O-[Sodium{5-acetamido-3,5-dideoxy-4,7,8,9-tetra-O-(sodiumoxysulfonyl)-D-glycerol-α-D-galacto-2-nonulopyranosyl)onate]-1,2-di-O-octadecyl-Sn-glycerol] showed a CC50 in series [1] of over 200 µM. Besides, in the series with AIDS virus (HIV-1, IIIb), the IC50 amounted to 3.8 µM.

The compound `CCCCCCCCCCCCCCCCCCOCC(COC1(C(=O)O)CC(OS(=O)(=O)O)C(NC(C)=O)C(C(OS(=O)(=O)O)C(COS(=O)(=O)O)OS(=O)(=O)O)O1)OS(=O)(=O)O` [Example 10, 3-O-[Sodium{5-acetamido-3,5-dideoxy-4,7,8,9-tetra-O-(sodiumoxysulfonyl)-D-glycero-α-D-galacto-2-nonulopyranosyl}onate]-2-O-(sodiumoxysulfonyl)-1-O-octadecyl-Sn-glycerol] registered a CC50 in series [1] of over 200 µM. The IC50 in the series on AIDS virus (HIV-1, IIIb) was determined as 30 µM.

For the compound `CCCCCCCCCCCCCCCCCCOC[C@H](CO[C@@]1(C(=O)O)C[C@H](OS(=O)(=O)O)[C@@H](NC(C)=O)[C@H]([C@H](OS(=O)(=O)O)[C@@H](COS(=O)(=O)O)OS(=O)(=O)O)O1)OS(=O)(=O)O` [Example 11, 3-O-[Sodium{5-acetamido-3,5-dideoxy4,7,8,9-tetra-O-(sodiumoxysulfonyl)-D-glycero-β-D-galacto-2-nonulopyranosyl}onate]-2-O-(sodiumoxysulfonyl)-1-O-octadecyl-Sn-glycerol], the CC50 in series [1] worked out at 200 µM. This compound also came in with an IC50 with AIDS virus (HIV-1, IIIb) of 13 µM.

With `CCCCCCCCCCCCCCCCCCCCOCC(COC1(C(=O)O)CC(OS(=O)(=O)O)C(NC(C)=O)C(C(OS(=O)(=O)O)C(COS(=O)(=O)O)OS(=O)(=O)O)O1)OCCCCCCCCCCCCCCCCCCCC` [Example 17, 3-O-[Sodium{5-acetamido-3,5-dideoxy-4,7,8,9-tetra-O-(sodiumoxysulfonyl)-D-glycero-α-D-galacto-2-nonulopyranosyl)onate]-1,2-di-O-eicosyl-Sn-glycerol], in series [1], the CC50 is over 20 µM. Moreover, the IC50 in the series with AIDS virus (HIV-1, IIIb) came out at 2.5 µM.

Take `CCCCCCCCCCCCCCCCCCCCCCCCOCC(COC1(C(=O)O)CC(OS(=O)(=O)O)C(NC(C)=O)C(C(OS(=O)(=O)O)C(COS(=O)(=O)O)OS(=O)(=O)O)O1)OCCCCCCCCCCCCCCCCCCCCCCCC` [Example 20, 3-O-[Sodium{5-acetamido-3,5-dideoxy-4,7,8,9-tetra-O-(sodiumoxysulfonyl)-D-glycero-α-D-galacto-2-nonulopyranosyl}onate]-1,2-di-O-tetracosyl-Sn-glycerol]: in series [1], the CC50 is over 20 µM. In the series with AIDS virus (HIV-1, IIIb), this compound gave a half-maximal inhibitory concentration (IC50) of 1.2 µM.

`CC(=O)N[C@H]1[C@H]([C@H](OS(=O)(=O)O)[C@@H](COS(=O)(=O)O)OS(=O)(=O)O)O[C@@](O[C@H]2CC[C@@]3(C)C(=CC[C@H]4[C@@H]5CC[C@H]([C@H](C)CCCC(C)C)[C@@]5(C)CC[C@@H]43)C2)(C(=O)O)C[C@@H]1OS(=O)(=O)O` [Example 24, 3β-[Sodium{5-acetamido-3,5-dideoxy-4,7,8,9-tetra-O-(sodiumoxysulfonyl)-D-glycero-α-D-galacto-2-nonulopyranosyl}onate]-5-cholestene]: the CC50 in series [1] is over 200 µM. This compound also had an IC50 in the series with AIDS virus (HIV-1, IIIb) of 34 µM.

`CCCCCCCC/C=C\CCCCCCCCOC1(C(=O)O)CC(OS(=O)(=O)O)C(NC(C)=O)C(C(OS(=O)(=O)O)C(COS(=O)(=O)O)OS(=O)(=O)O)O1` [Example 25, Sodium[oleyl 5-acetamido-3,5-dideoxy-4,7,8,9-tetra-O-(sodiumoxysulfonyl)-D-glycero-α-D-galacto-2-nonulopyranosid]onate]: the CC50 in series [1] is over 200 µM. Besides, half-maximal inhibition in the series on AIDS virus (HIV-1, IIIb) (IC50) required 100 µM.

Turning to `CCCCCCCCCCCCCCCCCCO[C@]1(C(=O)O)C[C@H](OS(=O)(=O)O)[C@@H](NC(C)=O)[C@H]([C@H](OS(=O)(=O)O)[C@@H](COS(=O)(=O)O)OS(=O)(=O)O)O1` [Example 26, Sodium[octadecyl 5-acetamido-3,5-dideoxy-4,7,8,9-tetra-O-(sodiumoxysulfonyl)-D-glycero-α-D-galacto-2-nonulopyranosid)onate], the CC50 in series [1] is over 200 µM. This compound also gave an IC50 with AIDS virus (HIV-1, IIIb) of 100 µM.

`CCCCCCCCCCCCCCCCCCCCOCC(C)(COCCCCCCCCCCCCCCCCCCCC)CO[C@]1(C(=O)O)C[C@H](OS(=O)(=O)O)[C@@H](NC(C)=O)[C@H]([C@H](OS(=O)(=O)O)[C@@H](COS(=O)(=O)O)OS(=O)(=O)O)O1` [Example 32, Sodium[2,2-bis(eicosyloxymethyl)propyl 5-acetamido-3,5-dideoxy-4,7,8,9-tetra-O-(sodiumoxysulfonyl)-D-glycero-α-D-galacto-2-nonulopyranosid)onate]: the CC50 in series [1] was over 200 µM. In the series with AIDS virus (HIV-1, IIIb), this compound came in with an IC50 of 2.5 µM.
